Source: PMC11674305, “Inhibition of Neural Crest Cell Migration by Strobilurin Fungicides and Other Mitochondrial Toxicants” (Cells, 2024)

Columns and labels:
complex III (cIII) = target: T1, complex III (cIII) (Homo sapiens, UniProt P00156); assay: Electron transport chain complex activity in permeabilized NCC (Seahorse); assay type: cell-based; details: 60 μM (BMC10(V) of cMINC)
T1 construct: endogenous in cells; host or cells: neural crest cells (NCC), digitonin-permeabilized
Excerpt: (§1) Magel et al. (2024): Inhibition of neural crest cells migration by strobilurin fungicides
(§2) Figure S9. Inhibition of electron transport chain complexes by picoxystrobin in neural crest […]
(§3) NCC were exposed to the BMC10(V) of the cMINC assay (60 μ M). The grey area indicates th e non-significant range of the assay (≤ 25% change). The effect on complex IV (cIV) was non-significant (green bar). The purple bar indicates complex III (cIII) inhibition. Yellow bars […]
(§4) that for these assays, the electrons have to pass cIII to reach cIV (oxygen consumption), i.e. electrons from cI (or cII) cannot be used for the reduction of oxygen, as they need to flow through cIII (which is blocked). The pattern of inhibition is indicative of cIII as illustrated earlier (Delp et al., 2019; van der Stel et al., 2020).
(§5) To investigate the inhibition pattern of picoxystrobin, NCC were permeabilized and complex-specific substrates and inhibitors were sequentially injected as described earlier (Delp et al., 2019). In detail, cells were permeabilized with MAS buffer (220 mM mannitol, 1 mM ADP, 70 mM sucrose, 10 mM KH2PO4, 5 mM MgCl2, 2 mM HEPES, 1 mM EGTA, 4 mg/ml fatty acid-free BSA, pH = 7.2) supplemented with 25 μ g/mL digitonin. Seahorse measurements were started directly afterwards, and basal OCRs were assessed for internal normalization. Then picoxystrobin was injected and cI activity was assessed. […]

complex IV (cIV) = assay: as above; assay type: cell-based, human; details: 60 μM (BMC10(V) of cMINC)
Excerpt: as §1, §2, §3, §4
as §5, with “assessed. For this, cII was inhibited (5 mM malonat) and substrates for cI (2 mM […], 2.5 mM malic acid, 5 mM pyruvic acid)” for “assessed.”
(§6) were added. […] Next, cI was […]
(§7) inhibited (0.5 μ M rotenone) and substrates of cIII (250 μM duroquinol ) were added. At this step, cIII inhibition data for cIII were obtained. In the case of a cI inhibition (e.g. by rotenone), […]
(§8) To assess cII activity, cI was inhibited and the substrate of cII (10 mM succinic acid) was added.
(§9) Lastly, to assess cIV activity, cII was inhibited and the substrates of cIV (125 μ M TMPD, 2 mM ascorbic acid) were added. Data were compared to the solvent control. Details and assay validation have been provided earlier (Delp et al., 2019; van der Stel et al., 2020). […]

complex I (cI) = assay: as above; assay type: cell-based, human; details: 60 μM, due to block of cIII
Excerpt: as §1, §2, §3, §4
as §5, with “assessed. For this, cII was inhibited (5 mM malonat) and substrates for cI (2 mM […], 2.5 mM malic acid, 5 mM pyruvic acid)” for “assessed.”
as §6, §7, §8, §9

complex II (cII) = assay: as above; assay type: cell-based, human; details: 60 μM, due to block of cIII
Excerpt: as §1, §2, §3, §4
as §5, with “assessed. For this, cII was inhibited (5 mM malonat) and substrates for cI (2 mM […], 2.5 mM malic acid, 5 mM pyruvic acid)” for “assessed.”
as §6, §7, §8, §9

neural crest cells (NCC) [1] = assay: Seahorse oxygen consumption rate (mitochondrial stress test); assay type: cell-based, human
Description: The Seahorse bioanalyzer simultaneously measures cellular oxygen consumption rates (OCR) and extracellular acidification rates (ECAR). Therefore, NCCs were seeded at least two days prior to the assays at a density of 80,000 cells/well on Seahorse XF96 V3 PS Cell Culture Microplates (Agilent, Santa Clara, CA, USA) in either glucose medium or galactose medium. After 24 h, the medium was exchanged. For the real-time ATP production rate and mitochondrial stress assay, the cartridge was hydrated at 0% CO2 and 37 °C, and the seahorse was turned on to stabilize the temperature one day prior. The medium was changed to Seahorse XF DMEM Medium (Agilent, Santa Clara, CA, USA) supplemented with 2 mM L-glutamine, 1 mM pyruvate and 18 mM glucose or galactose 1 h before the start of the assays. Directly before the start of the assay, the medium was exchanged again. The sensor cartridge was loaded with the test compounds anchored to the BMC10 (V) of the cMINC screen and the recommended concentrations of calibration compounds for a mitochondrial stress test. These were 5 μM oligomycin, 15 μM carbonyl cyanide p-trifluoro methoxyphenylhydrazone (FCCP) and 5 μM rotenone plus 5 μM antimycin A. Additionally, 1 μg/mL H-33342 was added to the rotenone and antimycin A injection to perform afterwards a cell count (Cellomics, Waltham, MA, USA), to which the data were normalized. Six technical replicates were used for control conditions, and three technical replicates were used for other samples. The software Seahorse Analytics (Agilent, Santa Clara, CA, USA) was used for the evaluation (https://seahorseanalytics.agilent.com (accessed on 30 October 2024)).

neural crest cells (NCC) [2] = assay: Intracellular ATP measurement (CellTiterGlo); assay type: cell-based, human; details: after 60 min, at BMC10 (V) of cMINC
Description: Cells were seeded at a density of 20,000 cells/well. The NCCs were treated with the BMC10 (V) of the cMINC screen for one hour, six hours or 24 h. Then, a CellTiterGlo-Triton mix was prepared. Therefore, a 0.5% Triton solution in PBS was prepared, and the commercial reagent mix CellTiterGlo 2.0 (Promgea, Madison, WI, USA) was added in a 1:1 ratio. An amount of 50 µL/well of the mix was added to 100 µL of medium. The plate was shaken for two minutes, and 100 µL of the cell mixture was transferred to a white measurement plate. For the blank value, only medium with the mix was measured. Luminescence data of samples were normalized to DMSO solvent controls, and the ATP data are given in % relative to “untreated cells”.

neural crest cells (NCC) [3] = assay: Long-term transwell migration assay (18 h pre-exposure, 6 h migration); assay type: cell-based, human
Description: Magel et al. (2024): Inhibition of neural crest cells migration by strobilurin fungicides […]
Figure S11. Prolonged exposure of NCC in a modified transwell assay setup.
(A) Schematic illustration of the “long-term” transwell migration assay. In the beginning, NCC were plated into the insert of the transwell and treated with potential toxicants. In comparison to the standard transwell set-up, the lower medium compartment was initially not supplemented with FBS. In order to ensure a uniform concentration, picoxystrobin was added to both compartments. Cells were then incubated for 18 h (in the absence of a migration stimulus). Afterwards, 5% FBS was added to the lower compartment, to initiate NCC migration through the membrane pores. After 6 h, the number of cells that reached the downward surface of the membrane was quantified. (B) Result of concentration-dependent picoxystrobin testing in galactose medium in the long-term transwell assay. Cytochalasin D (200 nM) was used as positive control for “inhibited” migration (CytoD). “Unstimulated” migration (no FBS) is also shown. The dotted line at 75% indicates the threshold for inhibited migration. Data are expressed as means ± SEM from 3 independent biological experiments.
(also on this page, place not known: concentration -dependent long -term dott ed -4Ctrl Transwell migration [% of control ± SEM] CytoDBMC25 Picoxystrobin) […]

SMILES: CO/C=C(/C(=O)OC)c1ccccc1COc1cccc(C(F)(F)F)n1 [Picoxystrobin, picoxystrobin]
- effect on complex III (cIII) (complex III (cIII)): inhibition of complex III
- effect on complex IV (cIV) (complex IV (cIV)): non-
- effect on complex I (cI) (complex I (cI)): apparent inhibition
- effect on complex II (cII) (complex II (cII)): apparent inhibition
- lowering of OCR POD by 24 h pre-treatment (neural crest cells (NCC) [1]; 24 h pre-treatment vs acute exposure): 10 fold
- BMC25 (OCR), POD (neural crest cells (NCC) [1]; 24 h pre-treatment, galactose medium): 0.4 µM
- ATP levels (neural crest cells (NCC) [2]): did not decrease
- concentration range at which migration was inhibited (neural crest cells (NCC) [3]; 18 h pre-treatment + 6 h migration): ~600 nM
- BMC25 (neural crest cells (NCC) [3]; galactose medium, 18 h pre-exposure + 6 h migration): 0.6 µM
